# From the OligoGym collection
# HELM strings list units from the 5' end as sugar, base in round brackets, then linkage (d deoxyribose, r ribose, m 2'-O-methyl, p phosphodiester). Strings are as the collection lists them, not checked against the first reports. ss, as = sense and antisense strand; [lna] = locked nucleic acid (LNA); [hna] = hexitol nucleic acid; [fl2r] = 2'-fluoro
# Details: siRNA
# Note: test system not given here.
row,Substance,target mRNA knockdown
1,RNA1{r(G)p.m(C)p.r(A)p.r(G)p.r(C)p.r(A)p.r(C)p.r(G)p.r(A)p.r(C)p.r(U)p.r(U)p.r(C)p.r(U)p.r(U)p.r(C)p.r(A)p.r(A)p.r(G)p.r(U)p.r(U)}|RNA2{r(C)p.r(U)p.r(U)p.r(G)p.r(A)p.r(A)p.r(G)p.r(A)p.r(A)p.r(G)p.r(U)p.r(C)p.r(G)p.r(U)p.r(G)p.r(C)p.r(U)p.r(G)p.r(C)p.r(U)p.r(U)}$$$RNA1{StrandType:ss}|RNA2{StrandType:as}$,71.7%
2,RNA1{r(A)p.r(A)p.r(G)p.r(G)p.r(A)p.r(C)p.r(C)p.m(U)p.r(A)p.r(G)p.r(A)p.r(G)p.r(G)p.r(A)p.r(G)p.r(U)p.m(C)p.m(A)p.r(C)p.r(T)p.r(T)}|RNA2{r(G)p.m(U)p.r(G)p.r(A)p.r(C)p.r(U)p.r(C)p.r(C)p.r(U)p.r(C)p.m(U)p.r(A)p.r(G)p.r(G)p.r(U)p.r(C)p.r(C)p.r(U)p.r(U)p.r(T)p.r(T)}$$$RNA1{StrandType:ss}|RNA2{StrandType:as}$,78%
3,RNA1{r(A)p.r(A)p.r(A)p.r(C)p.[fl2r](C)p.[fl2r](A)p.r(G)p.r(G)p.[fl2r](A)p.r(A)p.r(G)p.[fl2r](G)p.r(G)p.r(G)p.r(A)p.r(A)p.r(A)p.r(U)p.r(C)p.r(T)p.r(T)}|RNA2{r(G)p.r(A)p.r(U)p.r(U)p.r(U)p.r(C)p.r(C)p.r(C)p.r(C)p.r(U)p.r(U)p.r(C)p.r(C)p.[fl2r](U)p.[fl2r](G)p.r(G)p.r(U)p.r(U)p.r(U)p.r(T)p.r(T)}$$$RNA1{StrandType:ss}|RNA2{StrandType:as}$,61%
4,RNA1{r(G)p.r(A)p.r(C)p.r(G)p.r(U)p.r(A)p.r(A)p.r(A)p.r(C)p.r(G)p.r(G)p.r(C)p.r(C)p.r(A)p.r(C)p.r(A)p.r(A)p.r(G)p.r(U)p.r(U)p.r(T)}|RNA2{r(A)p.r(C)p.r(U)p.r(U)p.r(G)p.r(U)p.r(G)p.[hna](G)p.r(C)p.r(C)p.r(G)p.r(U)p.r(U)p.[hna](U)p.r(A)p.r(C)p.r(G)p.[hna](U)p.[hna](C)p.[hna](G)p.r(T)}$$$RNA1{StrandType:ss}|RNA2{StrandType:as}$,87%
5,RNA1{r(G)p.r(G)p.r(A)p.r(G)p.r(C)p.m(U)p.r(A)p.r(G)p.r(A)p.r(C)p.r(G)p.r(G)p.r(G)p.m(U)p.r(A)p.r(C)p.r(G)p.r(A)p.r(G)p.r(T)p.r(T)}|RNA2{r(C)p.r(U)p.r(C)p.r(G)p.m(U)p.r(A)p.r(C)p.r(C)p.r(C)p.r(G)p.r(U)p.r(C)p.m(U)p.r(A)p.r(G)p.r(C)p.r(U)p.r(C)p.r(C)p.r(T)p.r(T)}$$$RNA1{StrandType:ss}|RNA2{StrandType:as}$,82%
6,RNA1{r(A)p.r(A)p.r(G)p.r(G)p.r(A)p.r(A)p.r(C)p.r(G)p.r(G)p.r(G)p.r(G)p.r(A)p.r(C)p.r(A)p.r(C)p.r(U)p.r(U)p.r(A)p.r(C)p.r(T)p.r(T)}|RNA2{r(G)p.m(U)p.r(A)p.r(A)p.r(G)p.r(U)p.r(G)p.r(U)p.r(C)p.r(C)p.r(C)p.r(C)p.r(G)p.r(U)p.r(U)p.r(C)p.r(C)p.r(U)p.r(U)p.r(T)p.r(T)}$$$RNA1{StrandType:ss}|RNA2{StrandType:as}$,38%
7,RNA1{r(C)p.r(U)p.r(U)p.r(A)p.r(C)p.r(G)p.r(C)p.r(U)p.r(G)p.r(A)p.r(G)p.r(U)p.r(A)p.r(C)p.r(U)p.r(U)p.r(C)p.r(G)p.r(A)p.[lna](T)p.[lna](T)}|RNA2{[lna](T)p.r(C)p.r(G)p.r(A)p.r(A)p.r(G)p.r(U)p.r(A)p.r(C)p.r(U)p.r(C)p.r(A)p.r(G)p.r(C)p.r(G)p.r(U)p.r(A)p.r(A)p.r(G)p.[lna](T)p.[lna](T)}$$$RNA1{StrandType:ss}|RNA2{StrandType:as}$,27%
8,RNA1{r(G)p.r(A)p.r(C)p.r(G)p.r(U)p.r(A)p.r(A)p.r(A)p.r(C)p.r(G)p.r(G)p.r(C)p.r(C)p.r(A)p.r(C)p.r(A)p.r(A)p.r(G)p.r(U)p.[lna](T)p.[lna](C)}|RNA2{r(A)p.m(C)p.r(U)p.r(U)p.r(G)p.r(U)p.r(G)p.r(G)p.r(C)p.r(C)p.r(G)p.r(U)p.r(U)p.r(U)p.r(A)p.r(C)p.r(G)p.r(U)p.r(C)p.r(G)p.r(C)}$$$RNA1{StrandType:ss}|RNA2{StrandType:as}$,81%
